pEC50: −log10 of the molar value.
Columns and labels:
[1] = system: Arabidopsis thaliana seedlings; test: Lateral root formation / root elongation of seedlings on agar plates; assay type: in vivo; settings: Arabidopsis thaliana; read-out: root elongation and lateral root development inhibited, EC50-value
Experimental: FIG. 3: (A) Phenotypic characterization. WT plants were grown under standard conditions on agar plates. […] Left panel: control plant. Middle panel: abrasin treated plant. Right panel: BL treated plant. (B) Dose response measurements of abrasin using lateral root formation as an indicator of brassinosteroid like activity. Error bars represent standard error of the mean. […] Osram) at 22° C. Three days after germination compounds were added to the 96-well plates at a final concentration of 50 μM. Plants were screened six days after germination for brassinosteroid-related phenotypes. For further phenotypical analysis, all plants were grown on vertically oriented square plates (Greiner Labortechnik, Austria) with solid medium derived from standard Murashige and Skoog medium under the same conditions. For the hypocotyl-elongation assay, plants were grown in the dark at 22° C. under the same conditions.

[2] = system: BR-biosynthetic, BR signaling and BR-induced genes; test: Real time PCR of BR pathway genes; assay type: in vivo, Arabidopsis thaliana
Experimental: FIG. 7: Q-PCR analysis of genes involved in BR biosynthesis. WT Arabidopsis plants were treated with abrasin (indicated as I5) for 2 hours at a concentration of 30 μM and/or with CHX at a concentration of 30 μM and RNA was extracted from whole plants.
FIG. 8: A: Western Blot analysis of the BES1 protein in 35S:BES1:GFP plants treated with BL and abrasin (indicated as I5 throughout the figure) (A); MG132 with BL or abrasin (B); a time course with abrasin (C) and a concentration gradient with abrasin (D). B: Abrasin and BL induce similar transcriptional regulation of the BR pathway.
RNA was extracted with the RNeasy kit. Poly(dT) cDNA was prepared from […] of total RNA with Superscript III reverse transcriptase (Invitrogen) and quantified on an LightCycler 480 apparatus (Roche) with the SYBR Green I Master kit (Roche) according to the manufacturer's instructions. Target quantifications were performed with specific primer pairs designed with the Beacon Designer 4.0 (Premier Biosoft International). All PCRs were performed in triplicate.
The primers used to quantify gene expression levels were for BAS 1: 5′-[…]-3′ and 5′-[…]-3′; BR6Ox1: 5′-TGGCCAATCTTTGGCGAA-3′ and 5′-[…]-3′; BR6Ox2: 5′-[…]-3′ and 5′-[…]-3′; BRI1: 5′-[…]-3′ and 5′-[…]-3′; CPD: 5′-[…]-3′ and 5′-[…]-3′; DWF4: 5′-[…]-3′ and 5′-[…]-3′ ROT3: 5′-ATTGGCGCGTTCCTCAGAT-3′ and 5′-[…]-3′; BES1: 5′-[…]-3′ and 5′-[…]-3′; BIN2: 5′-[…]-3′ and 5′-[…]-3′; BSU 1: 5′-[…]-3′ and 5′-[…]-3′; BZR1: 5′-[…]-3′ and 5′-[…]-3′; CDKA1; 1: 5′-[…]-3′ and 5′-[…]-3′; EEF1α: 5′-[…]-3′ and 5′-[…]-3′; BKI1: 5′-GCTCCGGCGTCGATGA-3′ and 5′-[…]-3′.

[3] = system: group II GSK-3 kinases (ASKs) including BIN2; test: ASK kinase assay with MBP as substrate, group II; assay type: biochemical, Arabidopsis; settings: 10 μM abrasin
Experimental: (§1) Coomassie staining was used as a loading control. b, Autoradiography of kinase assays with nine ASKs with MBP as a substrate in the presence or absence of 10 μM abrasin. The second member of group IV, ASKκ, had no kinase activity and was not included in the analysis. c, Autoradiography of kinase assays with AtMPK4, AtMPK6 and MBP as a substrate (left) and with AtAUR1 kinase and histone H3 as a substrate (right) in the presence or absence of 10 μM abrasin.
(§2) For in vitro kinase assays, MBP, MBP-BES1, and MBP-bes1 (20 ng each) were incubated with GST-BIN2 or GST-BRI1 kinase (200 ng each) in 20 μl of kinase buffer (20 mM Tris [pH 7.5], 100 mM NaCl, and 12 mM MgCl2) and 10 μCi ^32P-γATP. After incubation at 37° C. for 40 min, the reactions were stopped by adding 20 μl of 2×SDS buffer and boiling at 94° C. for 5 min. Proteins were resolved by a PAGE gel and phosphorylation was detected by exposing the dried gel to X-ray film. […]
(§3) Besides BIN2, nine additional GSK-3 kinases (also designated ASKs for Arabidopsis SHAGGY-related kinases) divided into four subgroups (I-IV) have been identified in Arabidopsis (Jonak and Hirt, 2002; Yoo et al. 2006). To determine the specificity of abrasin, its effect on the kinase activity of all ASKs was analyzed with myelin basic protein (MBP) as a general substrate. […]

[4] = target: T1, AtMPK4 (Arabidopsis thaliana, UniProt Q39024); test: Kinase assay with AtMPK4 and MBP as substrate; assay type: biochemical; settings: 10 μM abrasin
T1 sequence (Q39024 1-376): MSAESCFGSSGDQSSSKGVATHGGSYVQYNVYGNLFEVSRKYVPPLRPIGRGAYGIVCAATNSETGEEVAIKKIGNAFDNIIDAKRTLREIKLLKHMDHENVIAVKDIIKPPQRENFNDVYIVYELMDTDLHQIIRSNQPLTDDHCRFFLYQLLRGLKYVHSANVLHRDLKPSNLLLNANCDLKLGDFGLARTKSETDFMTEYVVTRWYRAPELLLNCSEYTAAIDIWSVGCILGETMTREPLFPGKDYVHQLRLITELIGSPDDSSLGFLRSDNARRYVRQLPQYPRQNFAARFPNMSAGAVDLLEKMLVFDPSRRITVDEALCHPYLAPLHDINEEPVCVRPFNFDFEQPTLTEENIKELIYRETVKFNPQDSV
Experimental: as §1, §2, §3

[5] = target: AtMPK6 (Arabidopsis thaliana, UniProt Q39026); test: Kinase assay with AtMPK6 and MBP as substrate; assay type: biochemical; settings: 10 μM abrasin
AtMPK6, sequence (Q39026 whole entry): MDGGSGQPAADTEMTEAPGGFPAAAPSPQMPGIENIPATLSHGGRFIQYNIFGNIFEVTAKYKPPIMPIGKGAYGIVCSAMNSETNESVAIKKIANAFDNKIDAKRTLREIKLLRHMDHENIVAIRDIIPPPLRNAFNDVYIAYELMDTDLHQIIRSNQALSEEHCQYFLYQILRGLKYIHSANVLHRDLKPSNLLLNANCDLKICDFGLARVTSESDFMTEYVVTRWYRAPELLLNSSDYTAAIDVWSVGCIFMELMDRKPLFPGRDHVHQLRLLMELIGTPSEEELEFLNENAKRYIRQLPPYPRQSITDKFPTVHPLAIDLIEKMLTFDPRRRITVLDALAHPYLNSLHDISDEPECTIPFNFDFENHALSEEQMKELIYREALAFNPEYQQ
Experimental: as §1, §2, §3

## O=C(O)CCC(=O)Nc1ccc(Br)cn1 [abrasin, 4-[(5-bromo-2-pyridinyl)amino]-4-oxobutanoic acid]
[1]
  pEC50: 4.70
[2]; 30 μM, 2 hours
  expression of genes downstream of the BRI1 receptor: all genes are upregulated
  expression of genes involved in biosynthesis and perception: regulated in the same way as a BL-treatment
[2]; 3-day-old seedlings, Abrasin 30 μM, 6 hours, compared to BL 1 μM
  RNA levels of BR biosynthetic, signaling and BR-induced genes: the expression profiles resembled closely those of BL treatment
[3]
  residual activity: 1-2
[4]
  effect on kinase activity: no effect
[5]
  effect on kinase activity: no effect

Source: patent US8273775B2, “Non-steroidal brassinosteroid mimetic” (priority 2006, dated 2012)
